This note sets out measurements from patent publication US20160257697A1, “THIOPHENE-SUBSTITUTED TETRACYCLIC COMPOUNDS AND METHODS OFUSE THEREOF FOR THE TREATMENT OF VIRAL DISEASES” (priority 2013, published 2016).

Where two headings read alike, the source gives them in different places.

Holding throughout (assay): microbe, parasite or virus in culture
Holding throughout (type): cell-based, Hepatitis C virus (HCV)

The subject of one assay is HCV replicon 2B. To be noted: Replicon Assay A. A digest of the protocol:
(§1)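 Cells seeded 2000/well + compound; 0.5% DMSO, 5% FBS; harvest day 3, lyse. Multiplex TaqMan RT-PCR for replicon (Neo probe) and cyclophilin RNA; amounts from Ct vs log(ng) linear regression of replicon total RNA standards.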
(Replicon systems follow genome replication, usually without infectious particles.)

The subject of another assay is HCV replicon 1A. The conditions noted are these: replicon 1A, Replicon Assay A. A digest of the protocol:
as §1

The subject of a further assay is HCV replicon 1AY93H. The conditions noted are these: Replicon Assay A. A digest of the protocol: as §1
Where [1] appears, read: read-out: 1A Y93H IC50, replicon 1AY93H.
The mark [2] stands for this setting: Hepatitis C virus, read-out: 2B IC50 (nM), replicon 2B.
Setting [3] is: Hepatitis C virus, read-out: 1A Y93H IC50 (nM), replicon 1AY93H.

Broadly, the IC50 is the concentration at which inhibition is half-maximal. For `CCc1ccc(C2Oc3cc(-c4cnc([C@@H]5CCCN5C(=O)C(NC(=O)OC)C5CCOC(C)(C)C5)[nH]4)cc(F)c3-c3cc4cc(-c5cnc([C@@H]6CCCN6C(=O)[C@@H](NC(=O)OC)C(C)C)[nH]5)ccc4n32)s1` (single isomer, unassigned) [Compound 159], the half-inhibitory concentration (IC50) came out at 0.45 nM with HCV replicon 2B (read-out: 2B IC50, replicon 2B); 0.0025 nM with HCV replicon 1A; 0.77 nM with HCV replicon 1AY93H (setting [1]).

Take `CCc1ccc(C2Oc3cc(-c4cnc([C@@H]5CCCN5C(=O)C(NC(=O)OC)C5CCOC(C)(C)C5)[nH]4)cc(F)c3-c3cc4cc(-c5cnc([C@@H]6CCCN6C(=O)[C@@H](NC(=O)OC)C(C)C)[nH]5)ccc4n32)s1` (single isomer, unassigned) [Compound 160]: the IC50 with HCV replicon 2B (read-out: 2B IC50, replicon 2B) turned out to be 19.1 nM; with HCV replicon 1A it was 0.114 nM; in the assay on HCV replicon 1AY93H (setting [1]) it was 24.9 nM.

With `CCc1ccc(C2Oc3cc(-c4cnc([C@@H]5CCCN5C(=O)C(NC(=O)OC)C5CCOC(C)(C)C5)[nH]4)cc(F)c3-c3cc4cc(-c5cnc([C@@H]6CCCN6C(=O)[C@@H](NC(=O)OC)C(C)C)[nH]5)ccc4n32)s1` (single isomer, unassigned) [Compound 164], the IC50 stood at 0.53 nM with HCV replicon 2B (read-out: 2B IC50, replicon 2B); 0.0015 nM in the assay on HCV replicon 1A; 0.13 nM in the assay with HCV replicon 1AY93H (setting [1]).

`CCc1ccc(C2Oc3cc(-c4cnc([C@@H]5CCCN5C(=O)C(NC(=O)OC)C5CCOC(C)(C)C5)[nH]4)cc(F)c3-c3cc4cc(-c5cnc([C@@H]6CCCN6C(=O)[C@@H](NC(=O)OC)C(C)C)[nH]5)ccc4n32)s1` (single isomer, unassigned) [Compound 165]: the IC50 with HCV replicon 2B (read-out: 2B IC50, replicon 2B) worked out at 0.24 nM; in the assay with HCV replicon 1A, 0.002 nM; in the assay with HCV replicon 1AY93H (setting [1]) it was 0.27 nM.

For `COC(=O)NC(C(=O)N1CCC[C@H]1c1ncc(-c2cc(F)c3c(c2)OC(c2ccc(C4CC4)s2)n2c-3cc3cc(-c4cnc([C@@H]5CCCN5C(=O)[C@@H](NC(=O)OC)C5CCOCC5)[nH]4)ccc32)[nH]1)C(C)(C)F` (single isomer, unassigned) [Compound 171], the IC50 in the assay with HCV replicon 2B (read-out: 2B IC50, replicon 2B) is 4.06 nM; in the assay on HCV replicon 1A, 0.0131 nM; in the assay on HCV replicon 1AY93H (setting [1]), 1.4 nM.

In the case of `COC(=O)NC(C(=O)N1CCC[C@H]1c1ncc(-c2ccc3c(c2)cc2n3C(c3ccc(C4CC4)s3)Oc3cc(-c4cnc([C@@H]5CCCN5C(=O)[C@@H](NC(=O)OC)C5CCOCC5)[nH]4)cc(F)c3-2)[nH]1)C(C)(C)F` (single isomer, unassigned) [Compound 174], the IC50 stood at 0.16 nM in the assay on HCV replicon 2B (read-out: 2B IC50, replicon 2B); 0.0011 nM in the assay with HCV replicon 1A; 0.614 nM with HCV replicon 1AY93H (setting [1]).

As for `COC(=O)NC(C(=O)N1CCC[C@H]1c1ncc(-c2ccc3c(c2)cc2n3C(c3ccc(C4CC4)s3)Oc3cc(-c4cnc([C@@H]5CCCN5C(=O)[C@@H](NC(=O)OC)C5CCOCC5)[nH]4)cc(F)c3-2)[nH]1)C(C)(C)F` (single isomer, unassigned) [Compound 175], the IC50 in the assay on HCV replicon 2B (read-out: 2B IC50, replicon 2B) is 10.5 nM; with HCV replicon 1A it was 0.0077 nM; in the assay on HCV replicon 1AY93H (setting [1]), 9.03 nM.

For the molecule `COC(=O)NC(C(=O)N1CCC[C@H]1c1ncc(-c2ccc3c(c2)cc2n3C(c3ccc(C4CC4)s3)Oc3cc(-c4cnc([C@@H]5CCCN5C(=O)[C@@H](NC(=O)OC)C(C)C)[nH]4)cc(F)c3-2)[nH]1)C1CC2CCC(C1)O2` (single isomer, unassigned) [Compound 181], the IC50 was 0.083 nM in the assay on HCV replicon 2B (setting [2]), 0.0023 nM with HCV replicon 1A and 0.054 nM in the assay on HCV replicon 1AY93H (setting [3]).

In the case of `COC(=O)NC(C(=O)N1CCC[C@H]1c1ncc(-c2ccc3c(c2)cc2n3C(c3ccc(C4CC4)s3)Oc3cc(-c4cnc([C@@H]5CCCN5C(=O)[C@@H](NC(=O)OC)C(C)C)[nH]4)cc(F)c3-2)[nH]1)C1C[C@@H](C)O[C@H](C)C1` (single isomer, unassigned) [Compound 191], the IC50 in the assay on HCV replicon 2B (read-out: 2B IC50, replicon 2B) turned out to be 0.89 nM; with HCV replicon 1A it was 0.0014 nM; with HCV replicon 1AY93H (setting [1]), 0.32 nM.

On to `COC(=O)NC(C(=O)N1CCC[C@H]1c1ncc(-c2ccc3c(c2)cc2n3C(c3ccc(C4CC4)s3)Oc3cc(-c4cnc([C@@H]5CCCN5C(=O)[C@@H](NC(=O)OC)C(C)C)[nH]4)cc(F)c3-2)[nH]1)C1C[C@@H](C)O[C@H](C)C1` (single isomer, unassigned) [Compound 192], for which the IC50 stood at 0.047 nM in the assay with HCV replicon 2B (read-out: 2B IC50, replicon 2B); 0.0011 nM with HCV replicon 1A; 0.028 nM in the assay with HCV replicon 1AY93H (setting [1]).

As to `COC(=O)NC(C(=O)N1CCC[C@H]1c1ncc(-c2ccc3c(c2)cc2n3C(c3ccc(C4CC4)s3)Oc3cc(-c4cnc([C@@H]5CCCN5C(=O)[C@@H](NC(=O)OC)C(C)C)[nH]4)cc(F)c3-2)[nH]1)C1C[C@@H](C)O[C@H](C)C1` (single isomer, unassigned) [Compound 193], the half-maximal inhibitory concentration (IC50) with HCV replicon 2B (read-out: 2B IC50, replicon 2B) was found to be 18.6 nM; in the assay with HCV replicon 1A, 0.0256 nM; with HCV replicon 1AY93H (setting [1]), 4.75 nM.

As to `CCc1ccc(C2Oc3cc(-c4cnc([C@@H]5CCCN5C(=O)[C@@H](NC(=O)OC)C(C)C)[nH]4)cc(F)c3-c3cc4cc(-c5cnc([C@@H]6C[C@H]7C[C@H]7N6C(=O)C(NC(=O)OC)C6C[C@@H](C)O[C@@H](C)C6)[nH]5)ccc4n32)s1` (single isomer, unassigned) [Compound 194], the IC50 came out at 0.63 nM with HCV replicon 2B (setting [2]), 0.0019 nM in the assay with HCV replicon 1A (Hepatitis C virus) and 0.095 nM in the assay with HCV replicon 1AY93H (setting [3]).

Take `CCc1ccc(C2Oc3cc(-c4cnc([C@@H]5CCCN5C(=O)[C@@H](NC(=O)OC)C(C)C)[nH]4)cc(F)c3-c3cc4cc(-c5cnc([C@@H]6C[C@H]7C[C@H]7N6C(=O)C(NC(=O)OC)C6CCOC(C)(C)C6)[nH]5)ccc4n32)s1` (single isomer, unassigned) [Compound 196]: the IC50 came out at 0.55 nM with HCV replicon 2B (read-out: 2B IC50, replicon 2B); 0.0018 nM in the assay on HCV replicon 1A; 0.062 nM in the assay with HCV replicon 1AY93H (setting [1]).

Consider `CCc1ccc(C2Oc3cc(-c4cnc([C@@H]5CCCN5C(=O)[C@@H](NC(=O)OC)C(C)C)[nH]4)cc(F)c3-c3cc4cc(-c5cnc([C@@H]6C[C@H]7C[C@H]7N6C(=O)C(NC(=O)OC)C6CCOC(C)(C)C6)[nH]5)ccc4n32)s1` (single isomer, unassigned) [Compound 197], for which the IC50 in the assay with HCV replicon 2B (read-out: 2B IC50, replicon 2B) is 0.47 nM; in the assay on HCV replicon 1A, 0.0021 nM; with HCV replicon 1AY93H (setting [1]), 0.1 nM.

Regarding `CCc1ccc(C2Oc3cc(-c4cnc([C@@H]5CCCN5C(=O)[C@@H](NC(=O)OC)C(C)C)[nH]4)cc(F)c3-c3cc4cc(-c5cnc([C@@H]6C[C@H]7C[C@H]7N6C(=O)C(NC(=O)OC)C6CCOC(C)(C)C6)[nH]5)ccc4n32)s1` (single isomer, unassigned) [Compound 199], the IC50 in the assay with HCV replicon 2B (read-out: 2B IC50, replicon 2B) turned out to be 33.3 nM; in the assay with HCV replicon 1A it was 0.118 nM; with HCV replicon 1AY93H (setting [1]), 26.5 nM.

Consider `CCc1ccc(C2Oc3cc(-c4cnc([C@@H]5CCCN5C(=O)[C@@H](NC(=O)OC)C(C)C)[nH]4)cc(F)c3-c3cc4cc(-c5cnc([C@@H]6C[C@H]7C[C@H]7N6C(=O)C(NC(=O)OC)C6CCOC(C)(C)C6)[nH]5)ccc4n32)s1` (single isomer, unassigned) [Compound 202], for which the IC50 in the assay with HCV replicon 2B (read-out: 2B IC50, replicon 2B) was 3.31 nM; with HCV replicon 1A it was 0.0013 nM; with HCV replicon 1AY93H (setting [1]) it was 0.49 nM.

As for `CCc1ccc(C2Oc3cc(-c4cnc([C@@H]5CCCN5C(=O)[C@@H](NC(=O)OC)C(C)C)[nH]4)cc(F)c3-c3cc4cc(-c5cnc([C@@H]6C[C@H]7C[C@H]7N6C(=O)C(NC(=O)OC)C6CCOC(C)(C)C6)[nH]5)ccc4n32)s1` (single isomer, unassigned) [Compound 203], the IC50 was 0.83 nM in the assay with HCV replicon 2B (read-out: 2B IC50, replicon 2B); 0.0016 nM in the assay on HCV replicon 1A; 0.12 nM in the assay on HCV replicon 1AY93H (setting [1]).

Turning to `COC(=O)NC(C(=O)N1CCC[C@H]1c1ncc(-c2cc(F)c3c(c2)OC(c2ccc(C4CC4)s2)n2c-3cc3cc(-c4cnc([C@@H]5CCCN5C(=O)[C@@H](NC(=O)OC)C(C)C)[nH]4)ccc32)[nH]1)C1CCOC(C)(C)C1` (single isomer, unassigned) [Compound 210], the IC50 in the assay with HCV replicon 2B (read-out: 2B IC50, replicon 2B) turned out to be 0.33 nM; in the assay on HCV replicon 1A, 0.0018 nM; in the assay on HCV replicon 1AY93H (setting [1]), 0.52 nM.

`COC(=O)NC(C(=O)N1CCC[C@H]1c1ncc(-c2cc(F)c3c(c2)OC(c2ccc(C4CC4)s2)n2c-3cc3cc(-c4cnc([C@@H]5CCCN5C(=O)[C@@H](NC(=O)OC)C(C)C)[nH]4)ccc32)[nH]1)C1CCOC(C)(C)C1` (single isomer, unassigned) [Compound 211]: the IC50 in the assay with HCV replicon 2B (read-out: 2B IC50, replicon 2B) is 0.42 nM; in the assay on HCV replicon 1A, 0.0026 nM; in the assay on HCV replicon 1AY93H (setting [1]), 0.22 nM.

For `COC(=O)NC(C(=O)N1CCC[C@H]1c1ncc(-c2cc(F)c3c(c2)OC(c2ccc(C4CC4)s2)n2c-3cc3cc(-c4cnc([C@@H]5CCCN5C(=O)[C@@H](NC(=O)OC)C(C)C)[nH]4)ccc32)[nH]1)C1CCOC(C)(C)C1` (single isomer, unassigned) [Compound 212], the IC50 in the assay with HCV replicon 2B (read-out: 2B IC50, replicon 2B) was 8.59 nM; with HCV replicon 1A it was 0.0681 nM; in the assay on HCV replicon 1AY93H (setting [1]) it was 6.07 nM.

For the molecule `COC(=O)NC(C(=O)N1CCC[C@H]1c1ncc(-c2cc(F)c3c(c2)OC(c2ccc(C4CC4)s2)n2c-3cc3cc(-c4cnc([C@@H]5CCCN5C(=O)[C@@H](NC(=O)OC)C(C)C)[nH]4)ccc32)[nH]1)C1CCOC(C)(C)C1` (single isomer, unassigned) [Compound 217], the IC50 with HCV replicon 2B (read-out: 2B IC50, replicon 2B) stood at 0.39 nM; in the assay with HCV replicon 1A, 0.003 nM; with HCV replicon 1AY93H (setting [1]) it was 0.18 nM.

Consider `COC(=O)NC(C(=O)N1CCC[C@H]1c1ncc(-c2ccc3c(c2)cc2n3C(c3ccc(C4CC4)s3)Oc3cc(-c4cnc([C@@H]5CCCN5C(=O)[C@@H](NC(=O)OC)C(C)C)[nH]4)cc(F)c3-2)[nH]1)C1CCOC(C)(C)C1` (single isomer, unassigned) [Compound 220], for which the IC50 in the assay with HCV replicon 2B (read-out: 2B IC50, replicon 2B) came to 0.93 nM; in the assay on HCV replicon 1A it was 0.0021 nM; with HCV replicon 1AY93H (setting [1]), 0.52 nM.

Consider `COC(=O)NC(C(=O)N1CCC[C@H]1c1ncc(-c2ccc3c(c2)cc2n3C(c3ccc(C4CC4)s3)Oc3cc(-c4cnc([C@@H]5CCCN5C(=O)[C@@H](NC(=O)OC)C(C)C)[nH]4)cc(F)c3-2)[nH]1)C1CCOC(C)(C)C1` (single isomer, unassigned) [Compound 221], for which the IC50 with HCV replicon 2B (read-out: 2B IC50, replicon 2B) was found to be 0.21 nM; with HCV replicon 1A it was 0.0022 nM; with HCV replicon 1AY93H (setting [1]) it was 0.18 nM.
